Tests used:
[1] = tested on: REH; experiment: Cell viability (CellTiter Glo), library of cancer drugs, individual or sample compression with randomized (alphabetical) pools, REH; assay type: cell-based; conditions: REH; for DRS: None (measured individually); for DRS from deconvolution: Samples, 7 Pick 3 randomized (alphabetical) sample pools
Summary of the method: (§1)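 Cells cultured with each drug individually at 1 nM–10 μM; viability by ATP luminescence (CellTiter Glo) to build dose-response curves and DRS. Samples read singly or pooled alphabetically (each drug in 3 of 7 pools), with pooled DRS recovered by additivity-based SUM deconvolution.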

[2] = tested on: MOLT-4; experiment: Cell viability (CellTiter Glo), library of cancer drugs, individual or sample compression with randomized (alphabetical) pools, MOLT-4; assay type: cell-based; conditions: for DRS: MOLT-4, None (measured individually); for DRS from deconvolution: MOLT-4, Samples, 7 Pick 3 randomized (alphabetical) sample pools
Summary of the method: as §1

[3] = tested on: REH; experiment: Cell viability (CellTiter Glo), compressed perturbation pools with informed pool design, MAX-based deconvolution, REH; conditions: for DRS / DRS from MAX-based deconvolution / DRS, REH, MAX / top hit of cohort (deconvoluted effect size): REH; for DRS: None (measured individually), informed pool design table; for DRS from MAX-based deconvolution: Samples, 7 Pick 3 informed perturbation pools; for DRS, REH, MAX: compressed perturbation pools, informed pool design, MAX-based deconvolution; for top hit of cohort (deconvoluted effect size): informed perturbation pools;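 for DRS from MAX-based deconvolution: higher DRS means a larger drug effect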
Summary of the method: (§2)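 Per-drug DRS recovered by MAX deconvolution, which assumes the strongest pool member masks the rest; after ranking, each drug in turn takes the DRS of the lowest-signal pool containing it, and leftovers score zero. Pools built from drug class and known toxic combinations; dose-response spans 1 nM to 10 μM, read by ATP-based luminescence.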

[4] = tested on: MOLT-4; experiment: Cell viability (CellTiter Glo), compressed perturbation pools with informed pool design, MAX-based deconvolution, MOLT-4; conditions: for DRS: MOLT-4, None (measured individually), informed pool design table; for DRS from MAX-based deconvolution: MOLT-4, Samples, 7 Pick 3 informed perturbation pools; for DRS, MOLT-4, MAX: compressed perturbation pools, informed pool design, MAX-based deconvolution; for top hit of cohort (deconvoluted effect size): informed perturbation pools;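 for DRS from MAX-based deconvolution: higher DRS means a larger drug effect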
Summary of the method: as §2

[5] = tested on: REH; experiment: Cell viability (CellTiter Glo), compressed perturbation pools with informed pool design, SUM-based deconvolution, REH; parameters: scale not given here
Procedure: (§3) Total cell viability was measured for each sample using an ATP-based luminescence assay (i.e., CellTiter Glo). Each cancer drug was then screened at multiple concentrations ranging from one nM to ten μM in order to generate a dose-response curve and calculate a DRS for each cancer cell line.
(§4) Each cancer drug was cultured with target cells individually. At the end of the screen, samples were either analyzed individually or compressed into pools for analysis. The library was compressed alphabetically into ten cohorts, each of which contained seven cancer drugs present in three out of the seven pools, as shown in Table VII. Said another way, the screening platform 210 generated a “7 pick 3” compressed library by assigning the cancer drugs among different pools. […] The library was also compressed into ten cohorts with pools designed based on information known about each cancer drug, as shown in Table VIII. After cell viability measurement and DRS calculation, the DRS of each cancer drug in the samples generated based on the pools were deconvoluted and compared to the DRS for each cancer drug measured individually.
(§5) In parallel to the exemplary sample compression screen covered in Table VII, perturbations were compressed into pools and then screened. The pools were designed using drug class as a feature with two compression rules (or simply “rules”). The first rule required that drugs from the same class be separated into different cohorts (i.e., mutually exclusive groups of pools). The second rule separated PI3K pathway inhibitors from MAPK pathway inhibitors, as inhibiting these pathways in parallel is known to be synergistic but has not been clinically effective due to dose-limiting toxicities. A benefit of compressing perturbations is the ability to measure additive, antagonistic, and synergistic effects between drugs in the same pool. However, these effects can negatively impact deconvolution of individual drug effects. Therefore, combinations of drugs for which evidence of clinical toxicity exists can be assigned to different pools in accordance with an informed pooling operation. As new preclinical or clinical evidence of toxic combinations becomes available, the rules implemented by the screening platform 210—and more specifically, its algorithm for compressing members of a library—can be updated accordingly.
(§6) In SUM-based deconvolution, an assumption of additivity is used to quantify the individual effects of each perturbation on each target. Additivity implies that each perturbation effect on each target is positively contributing to the overall effect measured for that pool. This is an accurate assumption for certain experiments, such as when targets or samples are compressed. When targets are pooled—or when samples containing different targets are pooled—the effect of each perturbation on each individual target is diluted. In other words, each perturbation has an isolated effect on a target in culture, and the sum total of the isolated effects are measured when pooled. Therefore, SUM-based deconvolution breaks down the sum total measured for a pool and assigns estimated fractional effects to each compressed perturbation or target in the pool. The screening platform 210 used SUM-based deconvolution for all target and sample compression experiments described above.
(§7) As mentioned above, SUM-based deconvolution uses the overlapping pool design to identify relative relationships and ranges for the individual effects of each perturbation. When the overlapping pool design is not sufficient to solve for the polynomials representing perturbation effects, an anchor perturbation can be identified by the screening platform 210 based on rank order and assigned an effect size of zero. The anchor perturbation may be the lowest ranked perturbation in the rank order. This then enables the screening platform 210 to solve for the polynomials for the remaining perturbations.

[6] = tested on: MOLT-4; experiment: Cell viability (CellTiter Glo), compressed perturbation pools with informed pool design, SUM-based deconvolution, MOLT-4; parameters: scale not given here
Procedure: as §3, §4, §5, §6, §7

SMILES	DRS [1]	DRS from deconvolution [1]	DRS [2]	DRS from deconvolution [2]	DRS [3]	DRS from MAX-based deconvolution [3]	DRS, REH, MAX [3]	effect size relative to everolimus ([4]; MOLT, Cohort 10)	DRS [4]	DRS from MAX-based deconvolution [4]	DRS, MOLT-4, MAX [4]	DRS, REH, SUM [5]	DRS, MOLT-4, SUM [6]	top hit of cohort (deconvoluted effect size) [3]	top hit of cohort (deconvoluted effect size) ([4]; MOLT)	effect on REH relative to MOLT cell line ([3]; REH relative to MOLT)
CCOc1cc2ncc(C#N)c(Nc3ccc(OCc4ccccn4)c(Cl)c3)c2cc1NC(=O)/C=C/CN(C)C [Neratinib]	2.58	2.32	4.08	4.32	29.39	34.11	3.06	larger effect size than everolimus	29.89	35.00	4.35	0.37	2.74	–	–	–
NC(=O)c1cccc2cn(-c3ccc([C@@H]4CCCNC4)cc3)nc12 [Niraparib]	0.70	0.59	4.30	4.85	4.42	5.23	0.00	–	6.12	8.06	0.00	0.00	0.00	–	–	–
Cc1ccc(Nc2nccc(N(C)c3ccc4c(C)n(C)nc4c3)n2)cc1S(N)(=O)=O [Pazopanib]	5.88	5.90	0.68	0.00	3.93	4.01	7.06	–	3.50	0.00	5.39	8.02	2.41	–	–	–
O=C(/C=C\n1cnc(-c2cc(C(F)(F)F)cc(C(F)(F)F)c2)n1)NNc1cnccn1 [Selinexor]	21.81	21.40	24.71	25.16	2.30	2.51	23.72	–	0.00	0.00	24.91	26.41	24.24	top hit	top hit	–
CO[C@H]1C[C@@H]2CC[C@@H](C)[C@@](O)(O2)C(=O)C(=O)N2CCCC[C@H]2C(=O)O[C@H]([C@H](C)C[C@@H]2CC[C@@H](OC(=O)C(C)(CO)CO)[C@H](OC)C2)CC(=O)[C@H](C)/C=C(\C)[C@@H](O)[C@@H](OC)C(=O)[C@H](C)C[C@H](C)/C=C/C=C/C=C/1C [Temsirolimus]	8.19	8.71	2.99	3.21	8.19	9.23	9.23	–	2.99	3.88	3.88	9.71	2.54	top hit	top hit	much larger effects on the REH cell line

Source: patent US20260378560A1, “APPROACHES TO DESIGNING AND PERFORMING COMPRESSED BIOLOGICAL EXPERIMENTS AND SYSTEMS FOR IMPLEMENTING THE SAME” (EXVIVO LABS INC., priority 2023, published 2026)
